Laboratory results reported in PMC11134387, “Cancer-Stem-Cell Phenotype-Guided Discovery of a Microbiota-Inspired Synthetic Compound Targeting NPM1 for Leukemia” (JACS Au, 2024).

Tests used:
NPM1 C+ = assay: Confocal microscopy of NPM1 subcellular localization in OCI-AML3 cells; type: cell-based; conditions: OCI-AML3, 10 μM
Experimental: To further elucidate the mechanism of action of UCM-13369, we studied the influence of the compound on the subcellular localization of the protein by confocal microscopy, using an Alexa Fluor-647-conjugated NPM1 primary antibody (Figure 4D).
Cells were plated onto glass coverslips or Greiner Bio-One μClear black 96-well plate (7.5 × 10^4 cells per well) and treated with compound UCM-13369 for 48 h. Then, cells were fixed with 4% paraformaldehyde for 15 min, permeabilized with 0.1% Triton X-100 for 30 min, and blocked in 5% bovine serum albumin for 1 h at rt. Incubation with primary antibodies against NPM1 (7H10B9, NOVUS Biologicals) was carried out overnight at 4 °C. Alexa Fluor-488-conjugated antimouse or antirabbit antibodies (Molecular Probes) were used for detection of the reported proteins by confocal microscopy. Nuclei were counterstained with 4′,6-diamidino-2-phenylindole (DAPI) bath. A total of 35 fields per well were acquired with ×40 magnification lens for those samples run in the Opera HCS system (PerkinElmer). Images were segmented using the DAPI staining and the coefficient of variation of NPM1 intensity per nucleus/cytoplasm was calculated using Definiens Developer XD software.

[1] = test system: primary HSCs from healthy donors; assay: CD34+ liquid HSC short-term culture, healthy donors; type: cell-based; conditions: Homo sapiens
Experimental: Considering the inhibitory capacity of UCM-13369 on AML cell lines (shown in Figure 3A), the therapeutic potential was assessed in primary CD34+ cells from AML patients. Two ex vivo models were used from AML patients and healthy donors: CD34+ liquid HSC (hematopoietic stem cell) culture as a short-term model and CFU-E (colony-forming unit–erythroid) as a midterm model.
The test compound was diluted in PBS. […]
Primary cells. 1x10^6/mL total mononuclear bone marrow cells (as source of CD34+ HSCs) of healthy donors and AML patients were used. They were cultured using Stem SpanTM supplement with pencillin/streptomycin (500 U/ml), TPO (10 µg/mL), SCF (10 µg/mL), FLT3 (10 µg/mL), IL-6 (10 µg/mL) and IL-3 (10 µg/mL). After 24 h fresh medium was added. After 72 h in maintenance cells were ready to start the assays. All cells wer e maintained at 37 °C in a humidified incubator in an atmosphere of 5% CO2. […]

[2] = In vivo pharmacokinetic study; set-up: species or system mouse; conditions: single intraperitoneal administration, 25 mg/kg, up to 6 h
Experimental: Based on the encouraging results obtained in ex vivo models of AML, we further assessed the therapeutic potential of the new NPM1 inhibitor in vivo. Prior to the evaluation of the compound in an animal model of AML, in vivo pharmacokinetic studies were addressed. Following a single intraperitoneal administration of UCM-13369 at a dose of 25 mg/kg, levels of 200–600 μg/L were detected in mouse peripheral blood up to 6 h (Figure 6A). Plasma protein binding of the compound in mouse serum was measured using an equilibrium dialysis assay, indicating a bound fraction of 83 ± 1%. Next, the efficacy of the compound was evaluated in immunodeficient mice after injection of OCI-AML3-ffLuc-GFP cells as an AML animal model.
For the pharmacokinetic study of UCM-13369, after injecting 25 mg/kg dose of the compound, samples of blood were withdrawn at different times (30, 60, 120, 240, 360 min), and the presence of tested compound was analyzed by HPLC-MS. The area of the molecular peak allowed us to calculate the concentration of the compound present in mice serum at each time.

For `COc1ccc(C2Cc3[nH]c4ccccc4c3C(CCNCC3CC3)C2N)cc1` (stereo not drawn) [4b, 4-{2-[(Cyclopropylmethyl)amino]ethyl}-2-(4-methoxyphenyl)-2,3,4,9-tetrahydro-1H-carbazol-3-amine], the “Subcellular localization of NPM1 (in words)” value (NPM1 C+) was “reduction of the cytoplasmic form of the protein”, the IC50 [1] was 6.4 µM and the “Levels in mouse peripheral blood” value [2] was 200 to 600 ng/mL.
